Results published in patent publication US20250288704A1, “CXCR4-LIGANDS FOR DIAGNOSTIC AND THERAPEUTIC USE AND PRECURSORS THEREOF” (priority 2021, published 2025).
Read-outs that look alike come from different tables or passages of the source. Positions of bridges follow the written chain, without caps; N, C: chain ends. Non-standard residues stand in square brackets, D forms with d. Residues, ends and D or L forms follow the SMILES beside them. Groups on a side chain read outwards from the residue. Chains are numbered I, II in the order given. *: point of attachment. 2Nal = N[C@@H](Cc1ccc2ccccc2c1)C(=O)O; dNMeOrn = CN[C@H](CCCN)C(=O)O; HYNIC = NNc1ccc(C(=O)*)cn1; Mercaptoacetyl = O=C(CS)*; 4Abz = Nc1ccc(C(=O)O)cc1; X1 = NCCNCC(CNCCN)C(=O)*; dDap = NC[C@@H](N)C(=O)O

Key:
CXCR4 [1] = molecular target: T1, CXCR4 (Homo sapiens, UniProt P61073); assay: Determination of IC50: competition with 125I-Fc-131 on CXCR4-positive Jurkat cells; assay type: binding; design: CXCR4-positive Jurkat T lymphocyte cells were grown in Gibco's RPMI 1640 GlutaMAX medium; endogenous in cells; host or cells: Jurkat T lymphocyte cells (whole cells in suspension, 400.000 per tube);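 note: test compound at 10^−5 to 10^−11 M competed for 2 h at 8 °C with the radioligand on 400,000 cells per well, bound versus free activity measured by γ-counting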
T1 sequence (P61073 whole entry): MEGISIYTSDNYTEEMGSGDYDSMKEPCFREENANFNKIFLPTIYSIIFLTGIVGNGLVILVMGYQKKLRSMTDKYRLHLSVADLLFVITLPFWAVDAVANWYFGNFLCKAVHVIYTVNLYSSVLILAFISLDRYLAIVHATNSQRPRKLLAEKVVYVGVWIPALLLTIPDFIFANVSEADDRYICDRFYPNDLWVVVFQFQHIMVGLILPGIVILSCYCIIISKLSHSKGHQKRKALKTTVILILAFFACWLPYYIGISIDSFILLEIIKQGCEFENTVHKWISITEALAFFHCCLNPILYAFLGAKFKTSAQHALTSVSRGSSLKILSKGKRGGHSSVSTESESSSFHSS

CXCR4 [2] = molecular target: T1, CXCR4; assay: Determination of inverse IC50 (invIC50): radiolabeled peptide displaced by Fc-131 on Jurkat cells
Method: For in vitro experiments, cells were counted in a hemocytometer using trypan blue as contrast agent. The cell suspension was centrifuged, and the pellet resuspended in HBSS (+1 wt % BSA) to a concentration of 2 mio cells/mL. 8×3 polystyrene tubes were loaded with 25 μL of the standard ligand ^125I-Fc-131 (see 4.1, 1.00 nM in HBSS) and 25 μL of the ligand to investigate in the respective concentration (10^−4-10^−10 M, n=3 for each concentration). 200 μL of cell suspension (400.000 cells per well) were added to obtain a final peptide concentration range of 10^−5-10^−11 M. The tubes were cooled for 2 h at 8° C. to prevent internalization. The experiment was stopped by removal of the supernatant. 200 μL HBSS were added onto the cells, the suspension centrifuged, and the supernatant pooled with the respective first fractions. This step was repeated once more before the tubes containing the supernatants and the ones containing the cell pellets were subjected to activity measurement in the γ-counter.
For the determination of inverse IC50 (invIC50) values the protocol for the determination of regular IC50 values was resumed with minor changes. The peptide under investigation was radioactively labeled and a stock solution was prepared in HBSS (2.00 nM). A concentration gradient of the standard ligand Fc-131 was prepared in HBSS (10^−4-10^−10 M). A cell tube was then containing 25 μL of the radioactive peptide solution, 25 μL of the respective Fc-131 solution and 200 μL cell suspension (400.000 cells). The experiment was conducted as described above.

[3] = Octanol/PBS partition coefficient (logD7.4); assay type: physicochemical; conditions: n-octanol/PBS pH 7.4, radiolabeled compound
Method: The tubes were vortexed at maximum speed for 3 min to ensure equilibrium before centrifugation at 15.000×g for 5 min on a Biofuge 15 from Heraeus Holding GmbH (Osterode, Germany). An aliquot of 100 μL of each fraction was measured in the γ-counter and the log D7.4 calculated as follows: […]

[4] = system: CXCR4-expressing Chem_1 cells; assay: Determination of internalization, dual tracer with 125I-Fc-131; assay type: cell-based; conditions: for Cell-bound [%] / Internalized [%]: of total cellular activity
Summary of the method: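 Receptor blockade used AMD3100 (1 mM stock) versus medium-treated wells, triplicate per time point, in Chem_1 cells cultured at 37 °C in DMEM-F12/10% FBS. Activity of supernatant, surface-bound and internalized (1 M NaOH) fractions measured by γ-counter, corrected for non-specific uptake and normalised to standard ligand.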

[5] = Biodistribution in Jurkat tumor-bearing CB-17 SCID mice; assay type: in vivo; conditions: female, CB-17 SCID, mouse, in vivo, iv, total radioactivity
Summary of the method: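 Radioligand (125I, 177Lu, 99mTc, 18F or 68Ga label; roughly 0.5-20 MBq, 0.02-0.20 nmol) was injected intravenously via tail vein. Hosts were CB17-SCID mice with subcutaneous Jurkat tumors of 5-8 mm, 4-10 weeks post-inoculation. Dissected organs were weighed and counted in a γ-counter.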

[6] = Method: The radiosynthesis of [^99mTc]CXCR4-Tc-14 was performed manually, as described in chapter 4.2.3 above. Images were acquired after injection of 430-604 MBq of [^99mTc]CXCR4-Tc-14 at 5 min to 21 h p.i. Details of the scanning procedure are set out below.
Clinical evaluation of [^99mTc]CXCR4-Tc-14 in patients was conducted under compassionate use in compliance with the German Medicinal Products Act, AMG § 13 2b, and in accordance with the responsible authorities (Government of Oberbayern). First proof-of-concept studies were performed at the Universitätsklinikum Augsburg (Augsburg, Germany).
All subjects were examined on a Discovery MN CT 670 Pro equipped with an Optima 540 CT (GE Healthcare, Solingen, Germany). Full-body SPECT/CT scans at 5 and 60 min after tracer injection were acquired with a scanning speed of 30 cm/min, scans at 120 and 300 min were acquired with a scanning speed of 12 cm/min and scans at 21 h were acquired with a scanning speed of 5 cm/min. The scans were obtained in 60 subsets using the double-head technology in matrices of 128×128 (zoom 1). SPECT scans at 60 and 180 min after tracer injection were acquired with an exposure time of 8 sec per subset and scans at 21 h were acquired with an exposure time of 16 sec per subset. Emission data were smoothed applying a Butterworthfilter (0.48) and reconstructed iteratively by an ordered-subsets expectation maximization algorithm (2 iterations, 10 subsets). Images were obtained after injection of 430-604 MBq of [^99mTc]CXCR4-Tc-14 at 5 min to 21 h p.i.
The specific and effective doses in selected organs were analyzed. For calculation of the doses, voxels of interest were defined around areas with increased uptake in full-body images. Time-activity curves for the respective organs were automatically determined and the residence time of the tracer calculated using the specific calibration of the SPECT camera and a standard activity value. The residence time was used as the input data for the Olinda/EXM software. The output of this calculation was referred to the dosimetry guideline of the International Commission on Radiological Protection.

[7] = patient, multiple myeloma, 604 MBq

C[C@@H](NC(=O)[C@@H](CCCNC(=N)N)NC(=O)[C@@H](CN)NC(=O)[C@@H](CO)NC(=O)[C@@H](CO)NC(=O)[C@@H](CO)NC(=O)CS)C(=O)Nc1ccc(C(=O)NCCC[C@@H]2C(=O)N[C@@H](CCCNC(=N)N)C(=O)N[C@@H](Cc3ccc4ccccc4c3)C(=O)NCC(=O)N[C@H](Cc3ccc(O)cc3)C(=O)N2C)cc1 [Tc-CXCR4-6] (I: Mercaptoacetyl-[dS][dS][dS][dDap][dR][dA][4Abz] / II: cyclo([dY][dNMeOrn]R[2Nal]G); amide I:C-II:2)
IC50 (CXCR4 [1]): 4.97 ± 1.34 nM | IC50 (CXCR4 [2]): 3.67 ± 0.77 nM | logD7.4 [3]: −1.54 ± 0.02 (6) | Internalized in relation to 125I-Fc-131 [%] ([4]; 30 min): 470 ± 17.4% | Cell-bound [%] ([4]; 30 min): 6.56 ± 0.31% | Internalized [%] ([4]; 30 min): 17.4 ± 0.40% | Internalization [% Fc-131] ([4]; 90 min): 525 (90 min) % Fc-131 | Internalized in relation to 125I-Fc-131 [%] ([4]; 90 min): 526 ± 29.0% | Cell-bound [%] ([4]; 90 min): 6.90 ± 0.29% | Internalized [%] ([4]; 90 min): 27.1 ± 0.50%

C[C@@H](NC(=O)[C@@H](CCCNC(=N)N)NC(=O)[C@@H](CN)NC(=O)c1ccc(NN)nc1)C(=O)Nc1ccc(C(=O)NCCC[C@@H]2C(=O)N[C@@H](CCCNC(=N)N)C(=O)N[C@@H](Cc3ccc4ccccc4c3)C(=O)NCC(=O)N[C@H](Cc3ccc(O)cc3)C(=O)N2C)cc1 [Tc-CXCR4-13] (cyclo([dY][dNMeOrn]([4Abz-dA-dR-dDap-HYNIC])R[2Nal]G))
tissue uptake at 1 h ([5]; % iD/g Blood): 1.56 %ID/g | tissue uptake at 1 h ([5]; % iD/g Bone): 0.81 %ID/g | tissue uptake at 1 h ([5]; % iD/g Heart): 0.78 %ID/g | tissue uptake at 1 h ([5]; % iD/g Intestine): 0.57 %ID/g | tissue uptake at 1 h ([5]; % iD/g Kidney): 29.5 %ID/g | tissue uptake at 1 h ([5]; % iD/g Liver): 2.62 %ID/g | tissue uptake at 1 h ([5]; % iD/g Lung): 1.94 %ID/g | tissue uptake at 1 h ([5]; % iD/g Muscle): 1.52 %ID/g | tissue uptake at 1 h ([5]; % iD/g Pancreas): 0.36 %ID/g | tissue uptake at 1 h ([5]; % iD/g Spleen): 2.43 %ID/g | tissue uptake at 1 h ([5]; % iD/g Stomach): 1.98 %ID/g | tissue uptake at 1 h ([5]; % iD/g Tumor): 8.02 %ID/g | IC50 (CXCR4 [2]): 4.16 ± 1.5 nM | logD7.4 [3]: −2.74 ± 0.03 (5) | Internalized in relation to 125I-Fc-131 [%] ([4]; 30 min): 434 ± 18.8% | Cell-bound [%] ([4]; 30 min): 7.56 ± 0.38% | Internalized [%] ([4]; 30 min): 18.0 ± 0.27% | Internalization [% Fc-131] ([4]; 90 min): 503 (90 min) % Fc-131 | Internalized in relation to 125I-Fc-131 [%] ([4]; 90 min): 503 ± 16.2% | Cell-bound [%] ([4]; 90 min): 7.65 ± 0.47% | Internalized [%] ([4]; 90 min): 25.5 ± 0.57%

C[C@@H](NC(=O)[C@@H](CCCNC(=N)N)NC(=O)[C@@H](CN)NC(=O)C(CNCCN)CNCCN)C(=O)Nc1ccc(C(=O)NCCC[C@@H]2C(=O)N[C@@H](CCCNC(=N)N)C(=O)N[C@@H](Cc3ccc4ccccc4c3)C(=O)NCC(=O)N[C@H](Cc3ccc(O)cc3)C(=O)N2C)cc1 [Tc-CXCR4-14] (cyclo([dY][dNMeOrn]([4Abz-dA-dR-dDap-X1])R[2Nal]G))
tissue uptake at 1 h ([5]; Blood, 1 h p.i., Jurkat xenograft, CB-17 SCID female mice, read-out: % iD/g Blood): 1.62 %ID/g | tissue uptake at 1 h ([5]; Bone, 1 h p.i., Jurkat xenograft, CB-17 SCID female mice, read-out: % iD/g Bone): 1.31 %ID/g | tissue uptake at 1 h ([5]; Heart, 1 h p.i., Jurkat xenograft, CB-17 SCID female mice, read-out: % iD/g Heart): 1.21 %ID/g | tissue uptake at 1 h ([5]; Intestine, 1 h p.i., Jurkat xenograft, CB-17 SCID female mice, read-out: % iD/g Intestine): 0.92 %ID/g | tissue uptake at 1 h ([5]; Liver, 1 h p.i., Jurkat xenograft, CB-17 SCID female mice, read-out: % iD/g Liver): 7.67 %ID/g | tissue uptake at 1 h ([5]; Lung, 1 h p.i., Jurkat xenograft, CB-17 SCID female mice, read-out: % iD/g Lung): 3.99 %ID/g | tissue uptake at 1 h ([5]; Pancreas, 1 h p.i., Jurkat xenograft, CB-17 SCID female mice, read-out: % iD/g Pancreas): 0.56 %ID/g | tissue uptake at 1 h ([5]; Stomach, 1 h p.i., Jurkat xenograft, CB-17 SCID female mice, read-out: % iD/g Stomach): 1.97 %ID/g | tissue uptake at 1 h ([5]; Tumor, 1 h p.i., Jurkat xenograft, CB-17 SCID female mice, read-out: % iD/g Tumor): 8.63 %ID/g | IC50 (CXCR4 [2]; read-out: invIC50, radiolabeled compound displaced by Fc-131, Jurkat cells): 10.2 nM | logD7.4 ([3]; listed as [^99mTc]CXCR4-Tc-14): −1.75 | delivered whole-body dose ([6]; 604 MBq injected): 3.8 mSv | whole-body effective dose ([6]; patient, multiple myeloma): 6.3 μSv/MBq | specific dose, kidneys [6, 7]: 10 μGy/MBq | specific dose, liver [6, 7]: 14 μGy/MBq | specific dose, osteogenic cells [6, 7]: 13 μGy/MBq | specific dose, red bone marrow [6, 7]: 11 μGy/MBq | specific dose, spleen [6, 7]: 47 μGy/MBq | Internalized in relation to 125I-Fc-131 [%] ([4]; 10 min): 486 ± 18.9% | Cell-bound [%] ([4]; 10 min): 0.67 ± 0.14% | Internalized [%] ([4]; 10 min): 17.9 ± 0.59% | Internalized in relation to 125I-Fc-131 [%] ([4]; 30 min): 683 ± 51.3% | Cell-bound [%] ([4]; 30 min): 1.56 ± 0.41% | Internalized [%] ([4]; 30 min): 30.2 ± 0.74% | Internalized in relation to 125I-Fc-131 [%] ([4]; 60 min): 742 ± 45.2% | Cell-bound [%] ([4]; 60 min): 0.91 ± 0.14% | Internalized [%] ([4]; 60 min): 36.4 ± 0.20% | Internalization [% Fc-131] ([4]; 120 min): 666 (120 min) % Fc-131 | Internalized in relation to 125I-Fc-131 [%] ([4]; 120 min): 694 ± 42.5% | Cell-bound [%] ([4]; 120 min): 1.11 ± 0.48% | Internalized [%] ([4]; 120 min): 37.9 ± 0.56% | Internalization (in % of 125I-FC-131) ([4]; time not given): 742%
